Measured values published in patent US20240103005A1, “N-ACRYLOYLINDOLES AND METHODS OF USE” (The University of Hong Kong, priority 2022, published 2024).

Legend:
HepG2 cell lysates = assay: Gel-based ABPP, in vitro Cys labeling of HepG2 cell lysates (in-gel fluorescence); format: biochemical
Procedure: In-Gel Fluorescence for Visualizing Cys Labeling by NAIAs and IAA In Vitro
HepG2 or 231MFP cells were lysed by probe sonication in DPBS, and cell debris were removed by centrifugation at 1,000 g for 5 min. Protein concentration of the lysates was determined by bicinchoninic acid (BCA) assay, and the lysates were then diluted to 2 mg/mL by DPBS. 50 μL of the lysates were incubated with indicated concentrations of NAIA-4, NAIA-5 or IAA for indicated time interval at room temperature. […] Samples were then separated by molecular weight on precast 4-20% TGX gels (Thermo Scientific) and scanned by ChemiDoc MP (Bio-Rad Laboratories, Inc) for measuring in-gel fluorescence. […]
With the in vitro characterization data in hand, we next moved to investigate the ability of NAIA in labeling functional cysteines in cell lysates and live cells. […] After the reaction, the protein mixture was resolved by sodium dodecyl sulphate-polyacrylamide gel electrophoresis (SDS-PAGE) and in-gel fluorescence was measured. […] The fluorescence intensity from these labeled protein bands can then reflect the degree of cysteine labeling by the probes. […]

HepG2 cells = assay: Gel-based ABPP, Cys labeling in live HepG2 cells; format: cell-based; conditions: 10 μM, three incubation time intervals
Procedure: In-Gel Fluorescence for Visualizing Cys Labeling by NAIAs and IAA in Live Cells
231MFP or HepG2 cells were grown in 10-cm plates in complete medium. At ca. 80% confluency, the cells were treated with DMSO solvent control, NAIA-4, NAIA-5, or IAA at indicated concentrations in complete medium for indicated time interval. The cells were then washed by DPBS and lysed by probe sonication in DPBS. Cell debris were removed by centrifugation at 1,000 g for 5 min. Protein concentration of the lysates was determined by BCA assay, and the lysates were diluted to 2 mg/mL by DPBS. 50 μL of the lysates were labeled with azide-fluor 545 by CuAAC according to the procedures described above. The samples were then added with 4× reducing Laemmli SDS sample loading buffer, boiled at 90° C. for 5 min, and separated by molecular weight on precast 4-20% TGX gels and scanned by ChemiDoc MP for measuring in-gel fluorescence. After that, the gel was stained with SimplyBlue™ SafeStain as described above, washed and scanned by ChemiDoc MP for imaging the blue staining.
In view of the success in labeling cysteines in cell lysates, we then proceeded to apply NAIA for capturing reactive cysteines in live cells. […] After protein assay and normalization, the protein samples were subjected to click reaction with azide-fluor 545, followed by SDS-PAGE and in-gel fluorescence measurement. […]

SMILES: C#CCCCCNC(=O)COc1ccc2c(ccn2C(=O)C=C)c1 [NAIA-5]
- cysteine labeling (in-gel fluorescence) compared with IAA, time-dependent (HepG2 cell lysates; 1 and 10 μM, 15 and 30 min): more cysteine labeling by NAIA-5 than IAA was found at 1 and 10 μM for both 15 and 30 min incubation
- cysteine labeling (in-gel fluorescence) compared with IAA (HepG2 cell lysates; 1 h incubation, three doses): more cysteine labeling than IAA at all the three doses tested
- cysteine labeling in live cells (in-gel fluorescence) compared with IAA (HepG2 cells): better cysteine labeling than IAA at 10 μM for all the three incubation time intervals
